“Also recorded” adds a separate entry of the source. Read-outs that look alike come from different tables or passages of the source.
What was measured:
[1] = system: pancreatic cell line, BxPC-3; experiment: Colony-forming assay, 24 hour exposure; type: cell-based, human; conditions: 24 hour treatment
Protocol: The effect of 24 hour exposure to BODP or AB was determined by a colony-forming assay on the pancreatic cell line, BxPC-3, which is a primary adenocarcinoma (ACTTnr:CRL-1687). Freshly trypsinized cells were plated at 500 cells/dish in 60 mm^2 tissue culture dishes with the indicated concentration of each compound and incubated for 24 hours at 37° C. in 5% CO2 /air atmosphere. The cultures were washed with PBS, fresh medium was added, and the cultures were incubated for 7-12 days to allow the formation of colonies. Colonies were fixed with methanol, stained with Giemsa and counted. All incubations were performed in triplicate.

K562 cells [2] = experiment: Hb-containing K562 cells by benzidine staining; type: cell-based; conditions: for extent of differentiation, dose dependence: hemoglobin accumulation, K562
SMS-KCN [3] = experiment: cells; conditions: Homo sapiens
Protocol: (§1) The cell lines listed in Table 2 were grown to 70-80% confluence in complete medium (RPMI 1640 containing 10% fetal calf serum (FCS), 100 IU penicillin, 100 μg/mL streptomycin and 2 mM L-glutamine). Cells were harvested, washed in complete medium and counted. Cell viability was determined by trypan blue exclusion. The cells were placed into soft agar (0.12% in media) and plated at 5,000 viable cells per well onto an agarose underlayer (0.4%) in 24-well plates. After overnight culture, AB or BODP was added at the indicated concentration. Control cells received media alone. As a control for cell death, cells were treated with a superlethal dose of 10 μg/ml of cisplatin. The dosage of AB or BODP which inhibited fifty percent or ninety percent of cell proliferation (IC50 or IC90 respectively) was calculated using the Chou Analysis' Median Effective Dose equation.
(§2) Clonogenicity is determined as the percentage of clones in treated cultures relative to clones in mediumun-treated control cultures.

[4] = system: β-thalassemia and sickle-cell anemia patients; conditions: cited from earlier work
NGP = experiment: Clonogenicity (soft agar) of established tumor cell lines, NGP
Protocol: as §1, §2

human tumor cell lines = experiment: Clonogenicity of established tumor cell lines, summary over cell lines
Protocol: as §1, §2

[5] = U.S. Pat. No. 5,200,553; Nudelman et al.; cited from earlier work
neoplastic cells = conditions: in vitro; cited from earlier work
nuclear deacetylase(s) = conditions: cited from earlier work
B16 melanoma = conditions: cited from earlier work
[6] = system: HL-60 promyelocytic leukemia; conditions: cited from earlier work
cancer patients = conditions: cited from earlier work
[7] = system: expression of transfected DNA; conditions: cited from earlier work
[8] = cited from earlier work
K562 cells [9] = experiment: Total Hb content of K562 cultures by HPLC; type: cell-based; conditions: molar basis vs AB; FIG. 5
Protocol: (2) Quantitative measurement of fetal hemoglobin (HbF) in K562 culture or human erythroid cultures was determined by ion-exchange high pressure liquid chromatography (HPLC) as described by Fibach et al., Blood 81:1630-1635, 1993.
K562 cells: K562 is an erythroblast cell line (obtained from the ATCC, Rockville, Md.) that develops some properties of erythroid, megakaryocyte or monocyte cells, depending on the specific stimulus, when induced by different chemicals. K562 cells were grown in RPMI medium with 10% FCS, supplemented with 2 mM glutamine. Cells were incubated at 37° C. in a humidified, 5% CO2 incubator.

SMS-KCN [10] = system: SMS-KCN
Protocol: as §1, §2

NBAS-5 = experiment: Clonogenicity (soft agar) of established tumor cell lines, NBAS-5
Protocol: as §1, §2

IMR-32 = experiment: Clonogenicity (soft agar) of established tumor cell lines, IMR-32
Protocol: as §1, §2

LA1-5S = experiment: Clonogenicity (soft agar) of established tumor cell lines, LA1-5S
Protocol: as §1, §2

SK-N-SH = experiment: Clonogenicity (soft agar) of established tumor cell lines, SK-N-SH
Protocol: as §1, §2

SK-N-MC = experiment: Clonogenicity (soft agar) of established tumor cell lines, SK-N-MC
Protocol: as §1, §2

NBL-W-N = experiment: Clonogenicity (soft agar) of established tumor cell lines, NBL-W-N
Protocol: as §1, §2

SMS-KAN = experiment: Clonogenicity (soft agar) of established tumor cell lines, SMS-KAN
Protocol: as §1, §2

[11] = system: human colon carcinoma, leukemia and retinoblastoma cell lines; conditions: in vitro; cited from earlier work
[12] = system: reporter gene in primary and immortalized cell lines; conditions: cited from earlier work

Protocol for HL-60 cells: The level of CD11b was measured on HL-60 cells by flow cytometry using a monoclonal antibody (MAb) against CD11b in a standard indirect immunofluorescence assay. Cells were cultured for three or six days with the indicated concentration of BODP. Cultured cells were collected by centrifugation, resuspended at 10^6 cells per 20 μl RPMI+10% FCS and incubated with MAb for 30 minutes at 4° C. The cells were washed twice in cold PBS+10% FCS and incubated with a 1:20 dilution of FITC-conjugated F(ab')^2 fragment of rabbit anti-mouse IgG for 20-30 minutes at 4° C. in the dark. After washing the cells twice in cold PBS+10% FCS, flow cytometry was performed on a FACSstar (Becton Dickson) using an argon ion laser adjusted to excitation wavelength of 488 nm on samples containing 10^4 cells.

Compound: CCCC(=O)O [AB, arginine butyrate, reference compound]
- growth inhibition at 100 μM ([1]; 100 μM): did not cause complete growth inhibition
- extent of differentiation, dose dependence (K562 cells [2]): directly related to the drug dose
- increase in CD11b at the same concentration (HL-60 cells; 40 μM): no increase in CD11b
- expression of CD11b (HL-60 cells; 800 μM): 12%
- IC50 (SMS-KCN [3]): 1870 µM
- clinical efficacy ([4]; clinical trials): moderate efficacy
- side effects ([4]; β-thalassemia and sickle-cell anemia patients): hypokalemia, headache, nausea and vomiting
- IC50 (NGP; Homo sapiens): 197 µM
- IC90 (NGP; Homo sapiens): 1620 µM
- inhibition of cell proliferation, dose dependence (human tumor cell lines): inhibit cell proliferation in a dose-dependent manner

Compound: CCCC(=O)OCOC(=O)C(C)(C)C [AN-9, pivaloyloxymethyl butyrate]
- activity among butyric acid prodrugs [5]: most active

Compound: CCCC(=O)O [BA, Butyric acid]
- differentiating and antiproliferative activity (neoplastic cells): potent differentiating and antiproliferative agent
- effect on nuclear deacetylase(s) and histone acetylation (nuclear deacetylase(s)): inhibition of nuclear deacetylase(s), resulting in hyperacetylation of histones H3 and H4
- expression of c-myc and H-ras oncogenes (B16 melanoma): decrease in the expression of c-myc and H-ras oncogenes
- expression of c-myc [6]: decrease
- clinical efficacy in cancer patients (cancer patients; BA and BA salts): minimal or transient efficacy
- odor in patients (cancer patients; patients receiving BA): unpleasant odor
- expression of transfected DNA [7]: increase the expression of transfected DNA
- half-life in vivo [8]: very short half-lives in vivo
- metabolism ([8]; in vivo): metabolized rapidly

Compound: CCCC(=O)OCOP(=O)(OCC)OCC [BODP, butyroyloxymethyl diethyl phosphate]
- concentration causing complete inhibition [1]: above 50 μM
- growth inhibition, dose dependence [1]: dose-ependent growth inhibition
- extent of differentiation, dose dependence (K562 cells [2]): directly related to the drug dose
- proportion of Hb-containing cells per total cell population (K562 cells [2]; molar basis vs AB, 5 days exposure, FIG. 4): higher proportion of Hb-containing cells
- total Hb content of the cultures (K562 cells [9]): higher activity in inducing erythroid differentiation
- IC50 (SMS-KCN [10]): 54 µM
- Ratio AB/BODP IC50 (SMS-KCN [10]): 34.7
- increase of CD11b expression over untreated cells (HL-60 cells; 40 μM, four days, 5760 min): 7 fold
- differentiation induction, in words (HL-60 cells; BODP vs AB): more active differentiation inducer compared to AB
- IC50 (NGP): 17 µM
- IC90 (NGP): 49 µM
- Ratio AB/BODP IC50 (NGP): 11.6
- Ratio AB/BODP IC90 (NGP): 33.1
- IC50 (NBAS-5): 21 µM
- IC90 (NBAS-5): 71 µM
- Ratio AB/BODP IC50 (NBAS-5): 42
- Ratio AB/BODP IC90 (NBAS-5): 183.5
- IC50 (IMR-32): 35 µM
- IC90 (IMR-32): 88 µM
- Ratio AB/BODP IC50 (IMR-32): 25.2
- Ratio AB/BODP IC90 (IMR-32): 40.5
- IC50 (LA1-5S): 38 µM
- IC90 (LA1-5S): 105 µM
- Ratio AB/BODP IC50 (LA1-5S): 42.8
- Ratio AB/BODP IC90 (LA1-5S): 25.5
- IC50 (SK-N-SH): 15 µM
- IC90 (SK-N-SH): 44 µM
- Ratio AB/BODP IC50 (SK-N-SH): 66.5
- Ratio AB/BODP IC90 (SK-N-SH): 77.2
- IC50 (SK-N-MC): 37 µM
- IC90 (SK-N-MC): 145 µM
- Ratio AB/BODP IC50 (SK-N-MC): 5.8
- Ratio AB/BODP IC90 (SK-N-MC): 9.1
- IC50 (NBL-W-N): 38 µM
- IC90 (NBL-W-N): 96 µM
- Ratio AB/BODP IC50 (NBL-W-N): 12.9
- Ratio AB/BODP IC90 (NBL-W-N): 32
- IC50 (SMS-KAN): 45 µM
- IC90 (SMS-KAN): 128 µM
- Ratio AB/BODP IC50 (SMS-KAN): 25.3
- Ratio AB/BODP IC90 (SMS-KAN): 16.2
- inhibition of cell proliferation, dose dependence (human tumor cell lines): inhibit cell proliferation in a dose-dependent manner
- growth inhibition / clonogenicity inhibition potency, in words (human tumor cell lines; BODP vs AB): more potent growth inhibitor than AB; also recorded: significantly more potent tumor cell clonogenicity inhibitor than AB
- sensitivity of the cells to BODP compared with AB (human tumor cell lines; BODP vs AB): at least an order of magnitude more sensitive
- ratio of IC50 AB:IC50 BODP, median value (human tumor cell lines; median over cell lines): 25.2
- ratio of IC90 AB:IC90 BODP, median value (human tumor cell lines; median over cell lines): 28.75

Compound: CCCC(=O)[O-].[Na+] [SB, sodium butyrate]
- apoptosis [11]: produce apoptosis in vitro

Compound: CCCC(=O)OCC(COC(=O)CCC)OC(=O)CCC [Tributyrin]
- expression of a reporter gene [12]: enhance the expression of a reporter gene
